Where two headings read alike, the source gives them in different places.
What was measured:
[1] = test system: iCell endothelial cells (human iPSC-derived ECs); assay: Tube formation (tubulogenesis) assay in iCell endothelial cells, 18 h; type: cell-based; settings: Homo sapiens, Endothelial cell, 18 hr; for activity at 0.1 µM: 0.10 µM
Procedure, shortened: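 iCell ECs (passages 1–5) seeded 7,500 cells/well on reduced-growth-factor Geltrex in starvation medium, exposed overnight at 37°C to compounds in triplicate concentration–response (0.5% DMSO vehicle). Calcein AM staining, 4× imaging, angiogenesis image analysis; readouts normalized to vehicle, four-parameter logistic fit, POD at 1 SD of vehicle; 100 μM assigned NOAEL if no response.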

[2] = test system: HUVECs; assay: Tube formation (tubulogenesis) assay in HUVECs, 18 h; type: cell-based, human; settings: Homo sapiens, HUVEC, 18 h; for activity at 0.1 µM: 0.10 µM
Procedure, shortened: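 HUVECs (passage 1–5) seeded on reduced-growth-factor basement membrane and exposed to compounds overnight at 37°C, 5% CO2, in 2× maintenance medium with 12.5 ng/mL VEGF; 0.5% DMSO vehicle. Calcein AM-stained tube networks imaged and analysed; vehicle-normalized readouts fit to four-parameter logistic, POD set at one SD of vehicle means.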

[3] = iPSC-EC tube formation, 0.00 µM control = 100.00, read-out: endo.mtl.18hr
[4] = iPSC-EC tube formation, 0.00 µM control = 100.00, read-out: endo.tlps.18hr
[5] = iPSC-EC tube formation, 0.00 µM control = 100.00, read-out: endo.tta.18hr
[6] = iPSC-EC tube formation, 0.00 µM control = 100.00, read-out: endo.ttl.18hr
[7] = HUVECs, 0.00 µM = 100.00, read-out: huvec.mtl.18hr
[8] = HUVECs, 0.00 µM = 100.00, read-out: huvec.tlps.18hr
[9] = HUVECs, 0.00 µM = 100.00, read-out: huvec.tta.18hr
[10] = HUVECs, 0.00 µM = 100.00, read-out: huvec.ttl.18hr

With `Oc1cc(Cl)cc(-c2cccc(Cl)c2)c1` [5-OH PCB 11] the activity at 0.01 µM [1, 3] was 117%, the activity at 0.01 µM [1, 4] was 105% and the activity at 0.01 µM [1, 5] was 155%. It also gave an activity at 0.01 µM [1, 6] of 155%, an activity at 0.1 µM [1, 3] of 102% and an activity at 0.1 µM [1, 4] of 110%. It also gave an activity at 0.1 µM [1, 5] of 125%, an activity at 0.1 µM [1, 6] of 125% and an activity at 1 µM [1, 3] of 109%. It also gave an activity at 1 µM [1, 4] of 124%, an activity at 1 µM [1, 5] of 134% and an activity at 1 µM [1, 6] of 132%. For the same molecule, the activity at 10 µM [1, 3] was 53.8%, the activity at 10 µM [1, 4] was 26.9% and the activity at 10 µM [1, 5] was 38.5%. For the same molecule, the activity at 10 µM [1, 6] was 37.3%, the activity at 100 µM [1, 3] was 46.3% and the activity at 100 µM [1, 4] was 12.3%. The activity at 100 µM [1, 5] was 1.58%, the activity at 100 µM [1, 6] was 2.12% and the minimal effective concentration ([1]; iPSC-EC tube formation, top concentration 100.00 µM, read-out: endo.mtl.18hr POD) was 5.28 µM. For the same molecule, the minimal effective concentration ([1]; iPSC-EC tube formation, top concentration 100.00 µM, read-out: endo.tlps.18hr POD) was 5.71 µM, the minimal effective concentration ([1]; iPSC-EC tube formation, top concentration 100.00 µM, read-out: endo.tta.18hr POD) was 6.97 µM and the minimal effective concentration ([1]; iPSC-EC tube formation, top concentration 100.00 µM, read-out: endo.ttl.18hr POD) was 7.34 µM. It also gave an activity at 0.01 µM [2, 7] of 117%, an activity at 0.01 µM [2, 8] of 148% and an activity at 0.01 µM [2, 9] of 116%. It also gave an activity at 0.01 µM [2, 10] of 106%, an activity at 0.1 µM [2, 7] of 121% and an activity at 0.1 µM [2, 8] of 186%. For the same molecule, the activity at 0.1 µM [2, 9] was 123%, the activity at 0.1 µM [2, 10] was 106% and the activity at 1 µM [2, 7] was 103%. It also gave an activity at 1 µM [2, 8] of 111%, an activity at 1 µM [2, 9] of 113% and an activity at 1 µM [2, 10] of 104%. For the same molecule, the activity at 10 µM [2, 7] was 81.1%, the activity at 10 µM [2, 8] was 102% and the activity at 10 µM [2, 9] was 76.5%. For the same molecule, the activity at 10 µM [2, 10] was 67.6%, the activity at 100 µM [2, 7] was 63% and the activity at 100 µM [2, 8] was 38.8%. It also gave an activity at 100 µM [2, 9] of 111%, an activity at 100 µM [2, 10] of 94.6% and a minimal effective concentration ([2]; HUVECs, top concentration 100.00 µM, read-out: huvec.mtl.18hr POD) of 6.98 µM. For the same molecule, the minimal effective concentration ([2]; HUVECs, top concentration 100.00 µM, read-out: huvec.tlps.18hr POD) was 100 µM, the minimal effective concentration ([2]; HUVECs, top concentration 100.00 µM, read-out: huvec.tta.18hr POD) was 100 µM and the minimal effective concentration ([2]; HUVECs, top concentration 100.00 µM, read-out: huvec.ttl.18hr POD) was 32.7 µM.
Work on `Oc1cc(Cl)cc(-c2cccc(Cl)c2)c1` [5-OH-PCB 11] yielded a minimal effective concentration ([1]; endothelial cells (endo), tube formation mtl, read-out: POD endo.mtl.18hr) of 5.28 µM, a minimal effective concentration ([1]; endothelial cells (endo), tube formation tlps, read-out: POD endo.tlps.18hr) of 5.71 µM and a minimal effective concentration ([1]; endothelial cells (endo), tube formation tta, read-out: POD endo.tta.18hr) of 6.97 µM. It also gave a minimal effective concentration ([1]; endothelial cells (endo), tube formation ttl, read-out: POD endo.ttl.18hr) of 7.34 µM, a minimal effective concentration ([2]; tube formation mtl, read-out: POD huvec.mtl.18hr) of 6.98 µM and a minimal effective concentration ([2]; tube formation tlps, read-out: POD huvec.tlps.18hr) of 100 µM. It also gave a minimal effective concentration ([2]; tube formation tta, read-out: POD huvec.tta.18hr) of 100 µM and a minimal effective concentration ([2]; tube formation ttl, read-out: POD huvec.ttl.18hr) of 32.7 µM.

— PMC7377239, “Cardiovascular Effects of Polychlorinated Biphenyls and Their Major Metabolites” (Environmental Health Perspectives, 2020)
